Tests used:
CDK7 = target: T1, CDK7 (Homo sapiens, UniProt P50613); experiment: Lance TR-FRET kinase assay, CDK7; assay type: biochemical; details: ATP 50 μM, 60 min, read-out: CDK 7 inhibitory activity (IC50)
T1 construct: purchased ThermoFisher (Waltham, Mass.)
Procedure: (§1) Inhibitory activity of compounds against CDK1/2/4/5/6/7 was assessed using Lance TR-FRET assay kits from Perkin Elmer Life Sciences (Waltham, Mass.). CDK1/2/4/5/6/7 enzymes were purchased from ThermoFisher (Waltham, Mass.). […] Final concentrations of substrates and DMSO were 100 nM and 0.5%, respectively. Concentrations of ATP and different CDK enzymes were adjusted accordingly to achieve optimal enzymatic activities. Final CDK concentrations were 100, 500, 600, 100, 50, and 200 ng/well and ATP concentrations were 30, 50, 100, 20, 100, and 50 μM for CDK1/2/4/5/6/7, respectively. Assay plates were covered to protect from light and spun for 1 min at 700 RPM. Reactions were allowed to perform for 60 minutes in dark with gentle shaking at room temperature after which 5 μL of 40 mM EDTA in detection buffer was added to stop reactions followed 5 μL of the Eu labeled antibodies giving final concentrations of 2 nM to detect the phosphorylation of the peptide substrates. […] The percent of inhibition was calculated from the means of data points using the formula: 100−(Signalcompound−NoSignalbackground)*100/(Signalvehicle−NoSignalbackground). The IC50s were determined with GraphPad Prism by the non-linear sigmoidal curve fitting of data from 10 doses.

CDK2 = target: T2, CDK2 (Homo sapiens, UniProt P24941); experiment: Lance TR-FRET kinase assay, CDK2; assay type: biochemical; details: ATP 50 μM, 60 min, read-out: CDK 2 inhibitory activity (IC50)
T2 construct: purchased ThermoFisher (Waltham, Mass.)
Procedure: (§2) Time Resolved-Fluorescent Resonance Energy Transfer (TR-FRET) was used to determine inhibitory ability of compounds A1˜A19, B1s and B1˜B12 against the enzymatic activity of CDK1, CDK2, CDK4, CDK5, CDK6, CDK7, and CDK9.
(§3) Inhibitory activity of compounds against CDK1/2/4/5/6/7 was assessed using Lance TR-FRET assay kits from Perkin Elmer Life Sciences (Waltham, Mass.). CDK1/2/4/5/6/7 enzymes were purchased from ThermoFisher (Waltham, Mass.). 2.5 μL of compound solutions and 2.5 μL of enzyme solutions in kinase assay buffer, which was 50 mM HEPES (pH 7.5) with 1 mM EGTA, 1 mM MgCl2, 2 mM DTT, and 0.01% Tween-20, were added into a white OptiPlate-384 plate followed by adding 5 μL of fluorescently labeled peptide substrates (Ulight-4E-BP1 for CDK4/6 and Ulight-MBP for […]) and ATP mixture solutions. Final concentrations of substrates and DMSO were 100 nM and 0.5%, respectively. Concentrations of ATP and different CDK enzymes were adjusted accordingly to achieve optimal enzymatic activities. Final CDK concentrations were 100, 500, 600, 100, 50, and 200 ng/well and ATP concentrations were 30, 50, 100, 20, 100, and 50 μM for CDK1/2/4/5/6/7, respectively. Assay plates were covered to protect from light and spun for 1 min at 700 RPM. Reactions were allowed to perform for 60 minutes in dark with gentle shaking at room temperature after which 5 μL of 40 mM EDTA in detection buffer was added to stop reactions followed 5 μL of the Eu labeled antibodies giving final concentrations of 2 nM to detect the phosphorylation of the peptide substrates. Assay plates were read with the EnVision™ Multilabel Reader in TR-FRET mode (excitation at 320 nm and emission at 665 nm). The percent of inhibition was calculated from the means of data points using the formula: 100−(Signalcompound−NoSignalbackground)*100/(Signalvehicle−NoSignalbackground). The IC50s were determined with GraphPad Prism by the non-linear sigmoidal curve fitting of data from 10 doses.

CDK9/cyclin T1 = target: T3, CDK9/cyclin T1 (Homo sapiens, UniProt P50750); experiment: LanthaScreen Eu kinase binding assay, CDK9; details: tracer 236 displacement, CDK9/cyclin T1 5 nM, 1 hour; read-out: CDK 9 inhibitory activity (IC50)
T3 construct: purchased ThermoFisher (Waltham, Mass.)
T3 sequence (P50750 whole entry): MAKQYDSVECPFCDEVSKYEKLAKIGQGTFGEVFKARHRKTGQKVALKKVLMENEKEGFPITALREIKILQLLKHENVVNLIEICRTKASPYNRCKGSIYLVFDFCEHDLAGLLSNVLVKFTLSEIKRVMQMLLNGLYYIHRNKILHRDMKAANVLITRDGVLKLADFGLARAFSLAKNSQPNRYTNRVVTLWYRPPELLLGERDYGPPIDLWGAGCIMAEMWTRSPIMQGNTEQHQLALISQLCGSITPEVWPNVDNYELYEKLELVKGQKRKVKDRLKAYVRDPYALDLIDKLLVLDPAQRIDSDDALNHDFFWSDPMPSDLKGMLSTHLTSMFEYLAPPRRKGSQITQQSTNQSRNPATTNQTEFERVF
T3 sequence (O60563 whole entry partner): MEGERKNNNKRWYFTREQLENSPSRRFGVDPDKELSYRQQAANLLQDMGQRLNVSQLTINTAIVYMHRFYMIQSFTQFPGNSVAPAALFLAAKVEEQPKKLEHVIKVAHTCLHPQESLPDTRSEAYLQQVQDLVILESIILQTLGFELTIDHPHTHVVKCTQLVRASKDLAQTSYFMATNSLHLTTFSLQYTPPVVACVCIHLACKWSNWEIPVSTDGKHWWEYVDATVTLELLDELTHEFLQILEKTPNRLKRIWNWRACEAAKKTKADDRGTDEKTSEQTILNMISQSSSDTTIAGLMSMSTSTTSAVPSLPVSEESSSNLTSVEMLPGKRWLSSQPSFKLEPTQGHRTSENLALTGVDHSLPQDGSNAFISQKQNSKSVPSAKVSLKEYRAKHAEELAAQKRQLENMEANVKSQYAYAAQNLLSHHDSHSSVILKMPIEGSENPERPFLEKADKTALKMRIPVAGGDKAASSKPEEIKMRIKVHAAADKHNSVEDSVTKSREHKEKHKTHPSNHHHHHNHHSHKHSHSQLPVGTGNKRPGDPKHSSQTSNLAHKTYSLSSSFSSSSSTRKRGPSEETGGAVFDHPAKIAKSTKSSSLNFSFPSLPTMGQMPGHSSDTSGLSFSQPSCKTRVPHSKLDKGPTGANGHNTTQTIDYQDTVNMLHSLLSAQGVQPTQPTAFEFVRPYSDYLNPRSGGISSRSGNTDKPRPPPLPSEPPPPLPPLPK
Procedure: as §2
The CDK9 kinase inhibitory activity of compounds was tested in the LanthaScreen Eu kinase binding assay from ThermoFisher. LanthaScreen® Eu Kinase binding assays are based on the binding and displacement of a proprietary, Alexa Fluor® 647-labeled, ATP-competitive kinase inhibitor scaffold (kinase tracer) to CDK9. CDK9/cyclin T1, Kinase tracer 236 and LanthaScreen® Eu-anti-His Antibody were purchased form ThermoFisher (Waltham, Mass.). 5 μL of CDK9/cyclin T1 (final 5 nM)/antibody (final 2 nM) mixture, 5 μL of compound in kinase buffer, and 5 μL of tracer (final 30 nM) were added to wells of a white OptiPlate-384 plate in this specific order. Assay plates were covered to protect from light, spun for 1 min at 700 RPM and incubated at room temperature for 1 hour. Assay plates were read with the EnVision™ Multilabel Reader in TR-FRET mode (excitation at 320 nm and emission at 665 nm). The percent of inhibition was calculated from the means of data points using the formula: 100−(Signalcompound−NoSignalbackgound)*100/(Signalvehicle−NoSignalbackground). The IC50s were determined with GraphPad Prism by the non-linear sigmoidal curve fitting of data from 10 doses.

CDK5 = target: T4, CDK5 (Homo sapiens, UniProt Q00535); experiment: Lance TR-FRET kinase assay, CDK5; assay type: biochemical; details: ATP 20 μM, 60 min, read-out: CDK 5 inhibitory activity (IC50)
T4 construct: purchased ThermoFisher (Waltham, Mass.)
T4 sequence (Q00535 whole entry): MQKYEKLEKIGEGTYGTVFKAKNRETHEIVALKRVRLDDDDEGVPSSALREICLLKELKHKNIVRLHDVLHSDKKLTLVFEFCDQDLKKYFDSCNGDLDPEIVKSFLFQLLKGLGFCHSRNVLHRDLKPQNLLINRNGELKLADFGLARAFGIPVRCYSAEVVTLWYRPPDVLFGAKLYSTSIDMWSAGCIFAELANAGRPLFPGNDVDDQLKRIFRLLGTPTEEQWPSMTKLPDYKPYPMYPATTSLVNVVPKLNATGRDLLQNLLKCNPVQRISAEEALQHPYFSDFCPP
T4 sequence (Q15078 whole entry partner): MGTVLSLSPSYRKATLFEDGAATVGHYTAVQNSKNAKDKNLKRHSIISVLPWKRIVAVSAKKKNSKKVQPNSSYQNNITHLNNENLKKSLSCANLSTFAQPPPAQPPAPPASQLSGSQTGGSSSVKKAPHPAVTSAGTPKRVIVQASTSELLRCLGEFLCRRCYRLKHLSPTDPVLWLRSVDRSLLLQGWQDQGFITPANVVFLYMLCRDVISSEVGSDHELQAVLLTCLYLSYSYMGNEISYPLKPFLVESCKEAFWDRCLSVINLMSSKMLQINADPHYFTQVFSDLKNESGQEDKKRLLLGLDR
Procedure: as §2, §3

CDK1 = target: T5, CDK1 (Homo sapiens, UniProt P06493); experiment: Lance TR-FRET kinase assay, CDK1; assay type: biochemical; details: ATP 30 μM, 60 min, read-out: CDK 1 inhibitory activity (IC50)
T5 construct: purchased ThermoFisher (Waltham, Mass.)
T5 sequence (P06493 whole entry): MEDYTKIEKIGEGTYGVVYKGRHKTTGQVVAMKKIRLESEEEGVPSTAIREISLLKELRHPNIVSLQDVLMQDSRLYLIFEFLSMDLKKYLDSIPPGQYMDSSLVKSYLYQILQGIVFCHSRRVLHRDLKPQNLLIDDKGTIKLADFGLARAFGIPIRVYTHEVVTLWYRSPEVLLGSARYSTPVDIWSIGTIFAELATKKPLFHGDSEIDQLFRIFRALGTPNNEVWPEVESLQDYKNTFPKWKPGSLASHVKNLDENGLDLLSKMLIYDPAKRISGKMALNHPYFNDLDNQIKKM
T5 sequence (P14635 whole entry partner): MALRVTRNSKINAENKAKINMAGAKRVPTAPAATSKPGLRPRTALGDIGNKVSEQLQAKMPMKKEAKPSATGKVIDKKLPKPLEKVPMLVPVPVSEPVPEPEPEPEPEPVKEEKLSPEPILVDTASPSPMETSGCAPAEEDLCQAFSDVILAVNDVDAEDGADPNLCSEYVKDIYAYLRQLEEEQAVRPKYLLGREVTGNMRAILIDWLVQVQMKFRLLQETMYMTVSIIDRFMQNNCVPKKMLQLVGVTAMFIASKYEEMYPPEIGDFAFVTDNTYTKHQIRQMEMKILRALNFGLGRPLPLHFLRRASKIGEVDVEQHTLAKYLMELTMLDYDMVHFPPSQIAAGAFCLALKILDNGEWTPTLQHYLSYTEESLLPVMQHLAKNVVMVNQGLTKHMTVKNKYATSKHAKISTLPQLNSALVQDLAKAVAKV
Procedure: as §2, §3

CDK6 = target: T6, CDK6 (Homo sapiens, UniProt Q00534); experiment: Lance TR-FRET kinase assay, CDK6; assay type: biochemical
T6 construct: purchased ThermoFisher (Waltham, Mass.)
T6 sequence (Q00534 whole entry): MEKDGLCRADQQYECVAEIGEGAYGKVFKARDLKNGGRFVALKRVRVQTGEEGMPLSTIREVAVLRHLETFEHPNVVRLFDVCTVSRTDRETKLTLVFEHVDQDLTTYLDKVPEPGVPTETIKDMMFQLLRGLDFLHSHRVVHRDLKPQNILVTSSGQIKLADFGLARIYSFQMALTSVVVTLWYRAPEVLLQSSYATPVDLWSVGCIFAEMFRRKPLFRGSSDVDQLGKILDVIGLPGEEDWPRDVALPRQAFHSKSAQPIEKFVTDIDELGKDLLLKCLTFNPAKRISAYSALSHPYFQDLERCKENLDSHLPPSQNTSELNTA
T6 sequence (P24385 whole entry partner): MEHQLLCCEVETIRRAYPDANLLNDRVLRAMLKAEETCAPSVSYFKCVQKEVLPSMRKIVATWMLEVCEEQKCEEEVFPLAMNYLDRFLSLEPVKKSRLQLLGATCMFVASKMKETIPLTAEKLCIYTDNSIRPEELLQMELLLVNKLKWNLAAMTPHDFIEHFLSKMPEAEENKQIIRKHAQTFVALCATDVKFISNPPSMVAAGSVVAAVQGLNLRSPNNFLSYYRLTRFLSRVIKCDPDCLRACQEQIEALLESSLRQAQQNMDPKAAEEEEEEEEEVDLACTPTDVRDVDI
Procedure: as §2, §3

CDK4 = target: T7, CDK4 (Homo sapiens, UniProt P11802); experiment: Lance TR-FRET kinase assay, CDK4; assay type: biochemical; details: ATP 100 μM, 60 min, read-out: CDK 4 inhibitory activity (IC50)
T7 construct: purchased ThermoFisher (Waltham, Mass.)
T7 sequence (P11802 whole entry): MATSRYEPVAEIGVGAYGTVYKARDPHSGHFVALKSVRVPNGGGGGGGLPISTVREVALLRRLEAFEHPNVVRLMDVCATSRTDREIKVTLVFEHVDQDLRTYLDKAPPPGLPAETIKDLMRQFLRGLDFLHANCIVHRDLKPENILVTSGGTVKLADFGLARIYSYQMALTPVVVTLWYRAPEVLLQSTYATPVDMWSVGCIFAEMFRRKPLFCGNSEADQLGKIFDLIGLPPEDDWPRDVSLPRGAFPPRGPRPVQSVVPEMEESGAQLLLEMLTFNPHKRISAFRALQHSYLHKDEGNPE
T7 sequence (P24385 whole entry partner): as the sequence (P24385 whole entry partner) above
Procedure: as §1

T1 sequence (P50613 whole entry): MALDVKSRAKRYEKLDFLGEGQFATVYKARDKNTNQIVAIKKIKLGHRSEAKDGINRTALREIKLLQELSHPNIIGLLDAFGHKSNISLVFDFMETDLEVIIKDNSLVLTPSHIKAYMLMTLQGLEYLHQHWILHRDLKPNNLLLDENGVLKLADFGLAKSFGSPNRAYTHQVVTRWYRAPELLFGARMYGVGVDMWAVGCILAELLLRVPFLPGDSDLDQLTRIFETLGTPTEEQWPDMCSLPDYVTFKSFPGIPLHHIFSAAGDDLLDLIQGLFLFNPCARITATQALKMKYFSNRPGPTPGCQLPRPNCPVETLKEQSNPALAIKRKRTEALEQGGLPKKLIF
T1 sequence (P51946 whole entry partner): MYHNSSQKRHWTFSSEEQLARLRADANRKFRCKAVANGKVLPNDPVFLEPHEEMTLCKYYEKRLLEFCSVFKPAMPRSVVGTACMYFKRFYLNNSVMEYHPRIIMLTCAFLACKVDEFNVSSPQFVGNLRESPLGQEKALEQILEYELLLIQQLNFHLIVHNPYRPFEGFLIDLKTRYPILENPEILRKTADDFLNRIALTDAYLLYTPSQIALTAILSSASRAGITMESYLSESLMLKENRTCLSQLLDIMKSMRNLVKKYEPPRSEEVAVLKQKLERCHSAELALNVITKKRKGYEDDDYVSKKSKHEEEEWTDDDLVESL
T1 sequence (P51948 whole entry partner): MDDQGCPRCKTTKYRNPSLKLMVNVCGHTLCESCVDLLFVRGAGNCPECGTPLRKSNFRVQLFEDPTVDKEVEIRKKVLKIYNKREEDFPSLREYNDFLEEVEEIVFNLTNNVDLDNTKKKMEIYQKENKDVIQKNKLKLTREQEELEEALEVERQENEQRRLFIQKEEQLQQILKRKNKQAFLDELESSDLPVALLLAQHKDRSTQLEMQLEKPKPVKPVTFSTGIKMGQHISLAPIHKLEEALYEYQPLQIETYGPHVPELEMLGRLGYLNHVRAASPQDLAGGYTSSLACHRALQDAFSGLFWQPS

IC50 (CDK7)	IC50 (CDK2)	IC50 (CDK9/cyclin T1)	IC50 (CDK5)	IC50 (CDK1)	IC50 (CDK6)	IC50 (CDK4)	SMILES
1.1 µM	0.346 µM	0.0053 µM	0.262 µM	0.162 µM	0.00066 µM	0.0012 µM	CN(C)C(=O)c1sc2cnc(Nc3ccc(N4CCNCC4)cn3)cc2c1C1CCCC1 [Compound A1, 3-cyclopentyl-N,N-dimethyl-5-((5-(piperazin-1-yl)pyridin-2-yl)amino)thieno[2,3-c]pyridine-2-carboxamide]
3.29 µM	0.942 µM	0.0134 µM	0.266 µM	0.0395 µM	0.0011 µM	0.0014 µM	CN(C)C(=O)c1sc2cnc(Nc3ccc(N4CCNCC4)cn3)cc2c1C1CCCCC1 [Compound A5, 3-cyclohexyl-N,N-dimethyl-5-((5-(piperazin-1-yl)pyridin-2-yl)amino)thieno[2,3-c]pyridine-2-carboxamide]
0.0149 µM	0.0028 µM	0.0013 µM	0.0244 µM	0.0054 µM	0.0003 µM	0.0011 µM	N#Cc1sc2cnc(Nc3ccc(N4CCNCC4)cn3)cc2c1C1CCCC1 [Compound B1, 3-cyclopentyl-5-((5-(piperazin-1-yl)pyridin-2-yl)amino)thieno[2,3-c]pyridine-2-carbonitrile]
9.79 µM	0.0103 µM	0.0025 µM		0.0262 µM	0.0014 µM	0.0041 µM	CC(=O)N1CCN(c2ccc(Nc3cc4c(C5CCCC5)c(C#N)sc4cn3)nc2)CC1 [Compound B12, 5-((5-(4-acetylpiperazin-1-yl)pyridin-2-yl)amino)-3-cyclopentylthieno[2,3-c]pyridine-2-carbonitrile]
